Consider two compounds from patent US9890400B2, “Method of production of 2,4-dihydroxybutyric acid” (ADISSEO FRANCE S.A.S., priority 2012, dated 2018).

Assay [1] concerns malic enzyme. The following applies: Rognstad & Katz, 1979; cited from earlier work.
The target of assay [2] is T1, Metallosphaera sedula succinic semialdehyde reductase (Ms-SSR) mutant H39R, SEQ ID No. 32 (Metallosphaera sedula, UniProt A4YGN0, H39R).
T1 sequence (A4YGN0 1-360 H39R): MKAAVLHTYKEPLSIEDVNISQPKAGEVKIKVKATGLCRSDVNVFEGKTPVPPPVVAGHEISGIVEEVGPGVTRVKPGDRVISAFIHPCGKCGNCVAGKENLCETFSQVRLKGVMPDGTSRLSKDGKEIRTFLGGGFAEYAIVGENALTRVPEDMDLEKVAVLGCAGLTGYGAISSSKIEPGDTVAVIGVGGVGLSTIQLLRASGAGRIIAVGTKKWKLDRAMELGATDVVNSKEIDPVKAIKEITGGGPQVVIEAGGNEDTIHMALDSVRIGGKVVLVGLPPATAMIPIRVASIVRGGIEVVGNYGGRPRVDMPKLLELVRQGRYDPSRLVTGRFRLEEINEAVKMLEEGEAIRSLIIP
Kind of assay: Malate semialdehyde reductase activity. In kind it is biochemical. The following applies: NADH or NADPH, pH 7.5, 30° C., average of at least two independent experiments. How it is done: (§1) Test for Malate Semialdehyde Reductase Activity: (L)-Malate semialdehyde+NAD(P)H→(L)-2,4-dihydroxybutyric acid+NAD(P) Reaction scheme:
(§2) The assay mixture contained 200 mM Hepes (pH 7.5), 50 mM KCl, 5 mM MgCl2, 0.24 mM NADH or NADPH, and appropriate amounts of purified enzyme or cell extract. Reactions were started by adding 10 mM (L)-malate semialdehyde (malate semialdehyde was prepared freshly for each test, see Example 3). Enzymatic assays were carried out at 30° C. in 96-well flat bottomed microtiter plates in a final volume of 250 μL. The reactions were followed by the characteristic absorption of NAD(P)H at 340 nm (εNADPH=6.22 mM^−1 cm^−1) in a microplate reader (BioRad 680XR).
(§3) Site-directed mutagenesis was carried out using the oligonucleotide pairs listed in Table 6 and the pET28-Mse-SSR plasmid as the template. Point mutations to change the amino acid sequences were introduced by PCR (Phusion 1U, HF buffer 20% (v/v), dNTPs 2.5 mM, direct and reverse primers 1 μM each, template plasmid 200 ng, water). When possible, plasmids created by PCR contained new restriction sites (introduced using silent mutations) in addition to the functional mutation to facilitate identification of mutated clones. The PCR products were digested by DpnI at 37° C. for 2×2 h to remove template DNA, and transformed into NEB DH5-α competent E. coli cells (NEB). The mutated plasmids were identified by restriction site analysis and verified to carry the desired mutations by DNA sequencing.

Assay [3] has as its target T2, Metallosphaera sedula succinic semialdehyde reductase (Ms-SSR) mutant N43H, SEQ ID No. 34 (Metallosphaera sedula, UniProt A4YGN0, N43H).
T2 sequence (A4YGN0 1-360 N43H): T1 sequence (A4YGN0 1-360 H39R) with R39H, N43H
Kind of assay: Malate semialdehyde reductase activity. It is filed as biochemical. The following applies: NADH or NADPH, pH 7.5, 30° C., average of at least two independent experiments. How it is done: as §1, §2, §3

The target of assay [4] is T3, Metallosphaera sedula succinic semialdehyde reductase (Ms-SSR) double mutant H39R N43H, SEQ ID No. 36 (Metallosphaera sedula, UniProt A4YGN0, H39R/N43H).
T3 sequence (A4YGN0 1-360 H39R/N43H): T1 sequence (A4YGN0 1-360 H39R) with N43H
The experiment in a line: Malate semialdehyde reductase activity. In kind it is biochemical. The note with it: NADH or NADPH, pH 7.5, 30° C., average of at least two independent experiments. How it is done: as §1, §2, §3

The target of assay [5] is T4, Metallosphaera sedula succinic semialdehyde reductase (Ms-SSR), wild type, SEQ ID No. 16 (Metallosphaera sedula, UniProt A4YGN0).
T4 construct: full length 360 aa
T4 sequence (A4YGN0 1-360): T1 sequence (A4YGN0 1-360 H39R) with R39H
The experiment in a line: Malate semialdehyde reductase activity. It is filed as biochemical. The following applies: NADH or NADPH, pH 7.5, 30° C., average of at least two independent experiments. As to the method: To identify a suitable 2,4 DHB dehydrogenase, beta-hydroxyacid dehydrogenases from different biological sources were tested for their ability to reduce malate semialdehyde. […] The genes YPR1, 4hbdh, yqhD, and Ms-SSR were amplified using primers listed in Table 5 and cloned into vector pET28 (restriction enzymes see Table 5) yielding plasmids pET28-Sce-YPR1, pET28-Pgi-4-hbdh, pET28-Eco-yqhd and pET28-Mse-SSR, respectively. The proteins were expressed and purified as described in Example 1.
as §1, §2

Residue numbers refer to the chain shown, from its start.

Turning to `O=C(O)[C@@H](O)CCO` [2,4-DHB, 2,4-dihydroxybutyric acid], the “inhibition of malic enzyme” value in assay [1] is “competitive inhibitor”.

As for `O=CC[C@H](O)C(=O)O` [malate semialdehyde, (L)-malate semialdehyde], the Maximum activity is reported as 1.7 μmol/(min * mgprot) in assay [2], 4.3 μmol/(min * mgprot) in assay [3], 4.7 μmol/(min * mgprot) in assay [4] and 4.9 μmol/(min * mgprot) in assay [5].
